The values below come from EPA's ToxValDB 9.5.

This data set relates to Mus musculus. The settings on record: oral.
The mark [1] stands for this setting: developmental, duration: 17 days, gavage, F, CD1, Developmental: Delayed postnatal development [eye opening, preputial separation and vaginal opening] and decreased body weight gain ….
[2] abbreviates: developmental, duration: 18 days, gavage, F, Developmental: Decreased number of live births (36 and 31%) and pup survival at 1.1 and 2.0 mg/kg/day, but not […] / decreased number of ….
Setting [3] is: short-term, duration: 14 days, gavage, M, BALB/c, Body Weight: ~25% decrease in body weight + Hepatic: Increases in liver weight (~160%) and increases in hepatic triglyceride (~66%) and ….
The mark [4] stands for this setting: subchronic, duration: 90 days, gavage, M, Reproductive: Decreased sperm motility, viability, and number / degenerative changes in seminiferous tubules / decreased litter size.

Molecules are shown by their SMILES. “And” between values parts separate entries of the source, which are not always exact repeats. Equal values may be shown once.

For the compound `O=C(O)C(F)(F)C(F)(F)C(F)(F)C(F)(F)C(F)(F)C(F)(F)C(F)(F)C(F)(F)F` [Perfluorononanoic acid], the NOAEL (commonly the highest tested level that showed no adverse finding) was 1 mg/kg-day (developmental, duration: 16 days, gavage, M/F, CD1, developmental); 1 mg/kg-day under setting [1]; 2 mg/kg-day (developmental, duration: 18 days, gavage, F, Body Weight: No alterations in maternal body weight or gestational weight gain + Developmental: No alterations in the number of live pups …); 0.83 mg/kg-day under setting [2]; 10 mg/kg-day (reproduction developmental, duration: 17 days, gavage, F, CD1, Hepatic: Increases in absolute and relative liver weights in dams on GD 17 and on post-weaning day 28 at ?1 mg/kg/day); 2 mg/kg-day (reproduction developmental, duration: 18 days, gavage, F, Body Weight: No alterations in maternal body weight or gestational weight gain + Hepatic: Increase in dam liver weight at ?0.83 mg/kg/day). Further, the NOAEL reads like this: (short-term, duration: 7 days, gavage, M, Hepatic: Hepatocellular hypertrophy, steatosis, and increased hepatic triglyceride levels) 10 mg/kg-day; (short-term, duration: 14 days, diet, M/F, CD1, Hepatic: 50-70% increase in absolute liver weight at ?0.5 mg/kg/day) 5.3 mg/kg-day; under setting [3], 1 mg/kg-day; (subchronic, duration: 90 days, gavage, M, Hepatic: 33% decrease in serum cholesterol) 0.5 mg/kg-day; under setting [4], 0.2 mg/kg-day. The LOAEL (as a rule, the lowest dose or exposure tested at which an adverse effect was seen) is, setting by setting: under setting [1], 3 mg/kg-day and 5 mg/kg-day; under setting [2], 1.1 mg/kg-day; (reproduction developmental, duration: 17 days, gavage, F, CD1, Body Weight: 43% maternal weight loss at GD 13) 10 mg/kg-day; (short-term, duration: 14 days, diet, M/F, CD1, Death: 100% mortality before day 14) 54 mg/kg-day; under setting [3], 5 mg/kg-day; (short-term, duration: 14 days, gavage, M, BALB/c, Immunotoxicological: Decreases in the percentages of F4/80+ and CD49b+ cells in the spleen / no alteration in the response of splenic …) 1 mg/kg-day. Moreover, under setting [4], the LOAEL is 0.5 mg/kg-day.
